Experimental data taken from paper PMC6032158, “Structure–Activity Relationship of Piplartine and Synthetic Analogues against Schistosoma mansoni and Cytotoxicity to Mammalian Cells” (International Journal of Molecular Sciences, 2018).

Tests used:
[1] = system: mouse BALB/cN macrophage (J774A.1) cell line; experiment: Cell viability by flow cytometry in macrophages; details: 24 h, 25, 100 and 400 µg/mL, vs DMEM control
[2] = system: 49-day-old S. mansoni adult worms; experiment: In vitro experiments with adult worms of S. mansoni (mortality, motor activity); type: cell-based, Schistosoma mansoni; details: for Dead Worms (%) F / Motor Activity Reduction (%) Significant F / Motor Activity Reduction (%) Slight F: female worms; for Dead Worms (%) M / Motor Activity Reduction (%) Significant M / Motor Activity Reduction (%) Slight M: male worms
Protocol: The Belo Horizonte (BH) strain of S. mansoni was maintained in Biomphalaria glabrata snails and Mesocricetus auratus hamsters at the Adolfo Lutz Institute (São Paulo, Brazil) according to standard procedures. Detailed methods for the infection of molluscs and hamsters, as well as for the recovery of parasites, were as described previously. Briefly, the intermediate host snails were exposed to light for approximately 3 h and cercariae of S. mansoni were subsequently harvested. […] All animals were handled in strict accordance with good animal practice as defined by the Animal Use Ethics Committee. The preparations and culture of schistosomes was performed as previously described. Briefly, hamsters were killed 49 days after infection for the recovery of adult schistosomes. Next, fresh adult worm pairs (male and female) were washed and placed in a 24-well culture plate (TPP, St. […] Adult schistosomes were maintained continuously in medium (with or without drugs) for 96 h as described below. In vitro assays in S. mansoni adults were performed with mated males and females. The worm pairs obtained from the infusion hamsters were washed twice with RPMI 1640 medium containing 200 U/mL penicillin, 200 μg/mL streptomycin and 2 μg/mL amphotericin B (Vitrocell, Campinas, Brazil). The mated parasites were then transferred into 24-well cell culture plates (TPP, St. […] Cultures of adult worms were monitored by microscopy or magnifying glass. The effect of the drug was assessed with emphasis on changes in worm motor activity and death of worms as previously described.

[3] = system: murine fibroblast (NIH-3T3) cells; experiment: MTT cytotoxicity assay in murine fibroblasts; type: cell-based
Protocol: Next, the medium was removed and various concentrations (25–800 µg/mL) of samples reconstituted in 3% DMSO were applied. DMSO (3%) was used as a control. The plates were incubated for 24 h. Next, 15 µL of MTT solution (5 mg/mL in phosphate buffer) was added to each well and the plates were incubated for 2 h. Medium was discarded and 100 µL of DMSO was added to each well. Absorbance was determined using a spectrophotometer with a microplate reader at 595 nm (Molecular Devices Corporation, Sunnyvale, CA, USA).

SMILES: CCCCOC(=O)/C=C/C=C/c1cc(OC)c(OC)c(OC)c1 [Compound 19A]
- effect on J774A.1 cell viability (in words) [1]: did not reduce cell viability at the same concentrations
- Dead Worms (%) F ([2]; 25 µM, 24 h): 0%
- Motor Activity Reduction (%) Significant F ([2]; 25 µM, 24 h): 0%
- Motor Activity Reduction (%) Slight F ([2]; 25 µM, 24 h): 0%
- Dead Worms (%) M ([2]; 25 µM, 24 h): 0%
- Motor Activity Reduction (%) Significant M ([2]; 25 µM, 24 h): 0%
- Motor Activity Reduction (%) Slight M ([2]; 25 µM, 24 h): 0%
- Dead Worms (%) F ([2]; 50 µM, 24 h): 0%
- Motor Activity Reduction (%) Significant F ([2]; 50 µM, 24 h): 0%
- Motor Activity Reduction (%) Slight F ([2]; 50 µM, 24 h): 0%
- Dead Worms (%) M ([2]; 50 µM, 24 h): 0%
- Motor Activity Reduction (%) Significant M ([2]; 50 µM, 24 h): 0%
- Motor Activity Reduction (%) Slight M ([2]; 50 µM, 24 h): 0%
- Dead Worms (%) F ([2]; 50 µM, 48 h): 0%
- Motor Activity Reduction (%) Significant F ([2]; 50 µM, 48 h): 0%
- Motor Activity Reduction (%) Slight F ([2]; 50 µM, 48 h): 0%
- Dead Worms (%) M ([2]; 50 µM, 48 h): 0%
- Motor Activity Reduction (%) Significant M ([2]; 50 µM, 48 h): 0%
- Motor Activity Reduction (%) Slight M ([2]; 50 µM, 48 h): 0%
- Dead Worms (%) F ([2]; 50 µM, 72 h): 0%
- Motor Activity Reduction (%) Significant F ([2]; 50 µM, 72 h): 0%
- Motor Activity Reduction (%) Slight F ([2]; 50 µM, 72 h): 0%
- Dead Worms (%) M ([2]; 50 µM, 72 h): 0%
- Motor Activity Reduction (%) Significant M ([2]; 50 µM, 72 h): 0%
- Motor Activity Reduction (%) Slight M ([2]; 50 µM, 72 h): 0%
- Dead Worms (%) F ([2]; 50 µM, 96 h): 0%
- Motor Activity Reduction (%) Significant F ([2]; 50 µM, 96 h): 0%
- Motor Activity Reduction (%) Slight F ([2]; 50 µM, 96 h): 0%
- Dead Worms (%) M ([2]; 50 µM, 96 h): 0%
- Motor Activity Reduction (%) Significant M ([2]; 50 µM, 96 h): 0%
- Motor Activity Reduction (%) Slight M ([2]; 50 µM, 96 h): 0%
- activity against S. mansoni adult worms (in words) ([2]; analogues 50, 25, 10 and 5 μM, piplartine 5 and 10 μM, up to 96 h): loss of biological activity against S. mansoni
- effect on NIH-3T3 cell viability (in words) ([3]; MTT, 24 h exposure, 25 to 800 µg/mL): did not exert significant effects on mammalian cell viability at the tested concentrations
- Emax at 800 µg/mL ([3]; Mus musculus, NIH3T3, 24 h, decrease in cell viability at the maximum concentration tested (800 μg/mL), NIH-3T3, 24 h): < 50%
